Entries after “also recorded” stand apart in the source; their conditions may differ. Like-named read-outs stand apart in the source and are kept apart here.
How the values were obtained:
N2a NM-GFP^sol cells = type: cell-based, mouse; details: for percentage of recipient cells with NM-GFP aggregates: compounds added to cocultures 1 h after co-seeding, three concentrations, 12 h
MuERV Env and Gag = type: cell-based, mouse
Experimental: (§1) To inhibit methyltransferases, s2E P1 donor cells were treated for three days with methyltransferase inhibitors 5-Azacytidine (Aza) 200 nM, Decitabine (Dec) 100 nM or DMSO as solvent control. Subsequently, the cells were cultured in the absence of the drugs for 5 days. Pre-treated donor cells were subsequently cocultured with recipient cells as described above to monitor aggregate induction efficiency in recipient N2a NM-GFP^sol cells. Cell lysates of donor cells were also analyzed for MuERV Env and Gag expression levels by western blot. To increase DNA methylation, the s2E donor clone (P21) was treated with methyl group donors L-methionine (L-M) 80 mM, Betaine (B) 80 mM, Choline chloride (CC) 20 mM or medium control for 6 days. MuERV Env and Gag protein levels were analyzed by western blot. Subsequently, cells were cocultured with recipient cells for 16 h. The percentage of aggregate containing recipient cells was compared to the percentage of aggregate bearing recipients cocultured with solvent-treated donors.
Pre-designed siRNAs against murine XPR1 and mCat-1 genes were used to knock-down genes coding for putative receptors. For transfection, 2-4×10^5 cells/well were seeded on 6 well plates. The next day, 30 nM siRNA or plasmid DNA was transfected using Lipofectamine RNAiMAX or Lipofectamine2000 transfection reagent, respectively, according to the manufacturer's instructions (Thermo Fisher Scientific). After 2 days, transfected cells were harvested for aggregate induction assays and qRT-PCR, western blot analysis.
For Western blot analysis, protein concentrations were measured using the Quick Start™ Bradford Protein assay (Bio-Rad). Proteins were separated on NuPAGE®Novex® 4-12 Bis-Tris Protein Gels (Life Technologies) followed by transfer onto a PVDF membrane (GE Healthcare). Western blot analysis was performed using rat hybridoma anti-MuERV Env mAb83A25; anti-xenotropic MuLV virus antibody ABIN457298 for detecting both Env and Gag (antibodies-online); mouse anti-MuERV Gag ab100970 (Abcam); mouse anti-Alix (1:1000; BD Bioscience); rat anti-HA 3F10 (1:1000; Roche); mouse anti-GAPDH 6C5 (1:5000; Abcam); mouse anti-Hsc/Hsp70 N27F3-4 (1:1000; ENZO); mouse anti-VSV-G A5977 (Sigma); rabbit anti-Tau ab64193 (Abcam); mouse anti-HERV K Env HERM-1811-5 (Amsbio); mouse anti-HERV K Gag HERM-1841-5 (Amsbio). The membrane was incubated with Pierce™ ECL Western Blotting Substrate (Thermo Fisher Scientific) according to the manufacturer's recommendations.

MuERV env and gag mRNA = experiment: qRT-PCR of MuERV env and gag transcripts in donor clone s2E; type: cell-based, mouse; details: for expression of total env and gag mRNA: s2E P1 donors, Aza 200 nM or Dec 100 nM, then 5 days without drug, vs DMSO; for total env and gag mRNA: s2E P21 donors, L-methionine 80 mM, Betaine 80 mM, Choline chloride 20 mM, 6 days, vs medium control
Experimental: as §1, with “donors. […]” for “donors.”
Total RNA from cell pellets or brain samples was isolated using the RNeasy Mini Kit or RNeasy Lipid Tissue Mini Kit (Qiagen). RNA concentration and quality were determined using the Agilent 2100 Bioanalyzer System. For a 20 μl reaction, 1 μg RNAs were reversely transcribed to cDNA using the iScript™ cDNA Synthesis Kit (Bio-Rad). For a 20 μl qRT-PCR reaction, 2 μl of synthesized cDNA was used as template. For qRT-PCR of murine env AA037244.2 and gag AID54952, custom designed TaqMan probes were used (Thermo Fisher Scientific). Pre-designed TaqMan probes by the company for murine pan-env, xpr1, mcat-1 and gapdh as housekeeping control and TaqMan™ Gene Expression Master Mix (Thermo Fisher Scientific) were used. qRT-PCR using TaqMan probes was performed as described in the manufacturer's instruction. For qRT-PCR analyses of HERV family members, primers were designed using the corresponding cDNA sequences (cf. SEQ ID NOs. 73-92). PowerUP SYBR™ Green Master Mix (Thermo Fisher Scientific) was mixed with different cDNAs and corresponding primers as indicated in the instruction. The fast cycling mode was used for all primers.

HEK Tau-FRsol cells [1] = experiment: Tau-FR aggregate induction by EV from A375 Tau-GFPAD donor cells; type: cell-based, human; details: EV from donors treated with 10 μM for 3 d; 3 d on recipients in presence of 10 μM; vs DMSO
Experimental: (§2) Melanoma cell line A375 (Oricchio E, Sciamanna I, Beraldi R, Tolstonog G V, Schumann G G, Spadafora C. 2007. Distinct roles for LINE-1 and HERV-K retroelements in cell proliferation, differentiation and tumor progression. Oncogene 26:4226-4233) was engineered to stably express Tau-GFP and subsequently exposed to AD brain homogenate to induce Tau aggregation. A clone stably propagating Tau-GFPagg was isolated and used for experiments. Donor A375 Tau-GFPAD cells were treated with 10 μM inhibitor Lopinavir to repress HERV-K protease for 3 d before EV were harvested. Donors or donor EV were then cultured with recipient HEK Tau-FRsol cells in the presence of 10 μM Lopinavir or DMSO for 3 d. • b. Quantitative analysis of recipient cells with Tau-FRagg upon coculture with donors. Statistical analysis was performed with unpaired Student's t-test (n=6). • c. Quantitative analysis of recipient cells with induced Tau-FRagg following exposure to donor-derived EV. Statistical analysis was performed with unpaired Student's t-test (n=3). […]
(§3) To inhibit methyltransferase, MCF-7 Tau-GFPAD cells were treated with 2 μM Aza or DMSO for 4 d. […] Afterwards, the total numbers of viable cells and the viability upon drug treatments were determined using the Vi-VELLTMXR Cell Viability Analyzer (Beckman Coulter). […]

HEK Tau-FRsol cells [2] = experiment: Tau-FR aggregate induction by coculture with A375 Tau-GFPAD donor cells; type: cell-based, human; details: donors 10 μM for 3 d; coculture 3 d in presence of 10 μM; vs DMSO
Experimental: as §2, §3

HERV-K protease = molecular target: T1, HERV-K protease (Homo sapiens, UniProt P10265); details: stated as shown previously; cited from earlier work
T1 sequence (P10265 1-156): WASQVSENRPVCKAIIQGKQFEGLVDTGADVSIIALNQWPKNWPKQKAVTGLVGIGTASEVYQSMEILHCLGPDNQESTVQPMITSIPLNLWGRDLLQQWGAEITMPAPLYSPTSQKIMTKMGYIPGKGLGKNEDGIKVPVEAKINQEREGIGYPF

In the case of `Nc1ncn([C@@H]2O[C@H](CO)[C@@H](O)[C@H]2O)c(=O)n1` [5-Azacytidine], the “NM aggregate induction in recipient cells cocultured with pretreated donors” value (N2a NM-GFP^sol cells; s2E P1 donors pretreated, Aza 200 nM or Dec 100 nM, vs DMSO) is reported as “significantly increased NM aggregate induction in recipient cells”, the “expression of MuERV proteins” value (MuERV Env and Gag; s2E P1 donors, Aza 200 nM or Dec 100 nM, then 5 days without drug, vs DMSO) is reported as “increased expression” and the “expression of total env and gag mRNA” value (MuERV env and gag mRNA) is reported as “increased expression of total env and gag mRNA”. The “expression of total env and gag mRNA” value (MuERV env and gag mRNA; listed as 5-azacytidine) was “Increased expression of MuERV env (f), gag (h) and pan-env (g) transcripts”.
For `C[N+](C)(C)CC(=O)O` [Betaine], the “NM-GFP aggregate induction when pretreated donors were cocultured with recipient cells” value (from here on “NM-GFP aggregate induction”) (N2a NM-GFP^sol cells; s2E P21 donors pretreated 6 days, coculture 16 h) was “decreased NM-GFP aggregate induction”, the MuERV proteins (MuERV Env and Gag; s2E P21 donors, L-methionine 80 mM, Betaine 80 mM, Choline chloride 20 mM, 6 days, vs medium control) was “decreased” and the “total env and gag mRNA” value (MuERV env and gag mRNA) was “transcripts decreased”. The “total env and gag mRNA” value (MuERV env and gag mRNA; listed as betaine) was “decreased total env and gag mRNA”.
For `C[N+](C)(C)CCO.[Cl-]` [Choline chloride], the “NM-GFP aggregate induction” value (N2a NM-GFP^sol cells) was “decreased NM-GFP aggregate induction”, the MuERV proteins (MuERV Env and Gag) was “decreased” and the “total env and gag mRNA” value (MuERV env and gag mRNA) was “transcripts decreased”. The “total env and gag mRNA” value (MuERV env and gag mRNA; listed as choline chloride) was “decreased total env and gag mRNA”.
In the case of `CSCC[C@H](N)C(=O)O` [L-methionine], the “NM-GFP aggregate induction” value (N2a NM-GFP^sol cells) is reported as “decreased NM-GFP aggregate induction”, the MuERV proteins (MuERV Env and Gag) is reported as “decreased” and the “total env and gag mRNA” value (MuERV env and gag mRNA) is reported as “transcripts decreased”. For the same compound, the “total env and gag mRNA” value (MuERV env and gag mRNA; listed as 1-methionine) was “decreased total env and gag mRNA”.
In the case of `Cc1cccc(C)c1OCC(=O)N[C@@H](Cc1ccccc1)[C@@H](O)C[C@H](Cc1ccccc1)NC(=O)[C@H](C(C)C)N1CCCNC1=O` [Lopinavir], the “Tau aggregate inducing activity of donor-derived EV in recipients” value (HEK Tau-FRsol cells [1]) is given as “reduced Tau aggregate inducing activity in recipients”, the “recipient cells with Tau-FRagg upon coculture with donors” value (HEK Tau-FRsol cells [2]) is given as “significant reduction of recipient cells with aggregates; also recorded: reduces intercellular Tau aggregate spreading; also recorded: reduces intercellular protein aggregate spreading” and the “inhibition of HERV-K protease required for HERV protein maturation” value (HERV-K protease) is given as “inhibit HERV-K protease”.
In the case of `COC(=O)N[C@H](C(=O)N[C@@H](Cc1ccccc1)[C@@H](O)CN(Cc1ccc(-c2ccccn2)cc1)NC(=O)[C@@H](NC(=O)OC)C(C)(C)C)C(C)(C)C` [atazanavir], the “percentage of recipient cells with NM-GFP aggregates” value (N2a NM-GFP^sol cells; vs DMSO) is reported as “reduced the percentage of recipient cells with NM-GFP aggregates” and the “percentage of recipient cells with NM-GFP aggregates” value (N2a NM-GFP^sol cells; vs DMSO, listed as Atazenavir) is reported as “reduce aggregate induction”.

Reference: patent US20220332799A1, “HERV INHIBITORS FOR USE IN TREATING TAUOPATHIES” (Deutsches Zentrum Für Neurodegenerative Erkrankungen E.V. …, priority 2019, published 2022)
